Experimental data reported in patent publication US20110251160A1 (priority 2008, published 2011).
Like-named read-outs stand apart in the source and are kept apart here. Marks after values point to notes of the source that are not given here.

Tests used:
[1] = test system: patients with chronic atrial fibrillation; assay: PETRO study, phase 2 12-week dose finding study; format: in vivo, human
Excerpt: Primary endpoints were bleeding events and changes in D-dimer. […] Minor bleeding was dose related.

[2] = Physical properties of dabigatran etexilate; format: physicochemical
[3] = test system: patients with atrial fibrillation
Experimental: PETRO-Ex began while the PETRO study was ongoing and investigators were initially kept blinded to patient treatment group until PETRO was completed. Unblinding investigators to patient treatment was possible thereafter.
Data were summarized descriptively; no hypothesis was to be tested. Events were analyzed on the basis of the treatment at onset. Incidences were reported as number of patients with events as well as normalized to 100 patient years on the respective treatment.
Patients who completed PETRO on 50 mg b.i.d. were switched to 150 mg q.d. upon entry in the PETRO-Ex study (N=93 patients). […] Patients who were down titrated to 50 mg q.d. based on a glomerular filtration rate ≦50 mL/min during PETRO were excluded from the long-term trial; patients down-titrated in other dose levels remained on the q.d. treatment at that dose.
The former is represented by the number of thromboembolic events per 100 years, the latter by the number of bleeding events per 100 years.

[4] = Clinical pharmacokinetics and pharmacodynamics of dabigatran etexilate; conditions: in vivo
[5] = test system: cytochrome P-450 drug metabolizing enzymes; assay: Cytochrome P-450 interaction; format: in vitro ADME
[6] = 300 mg b.i.d., listed as dabigatran etexilate
[7] = PETRO-Ex, Dabigatran etexilate All doses
[8] = PETRO-Ex, including bleeding and thrombotic events

CCCCCCOC(=O)NC(=N)c1ccc(NCc2nc3cc(C(=O)N(CCC(=O)OCC)c4ccccn4)ccc3n2C)cc1 [Dabigatran etexilate, 1-methyl-2-[N-[4-(N-n-hexyloxycarbonylamidino)phenyl]aminomethyl]benzimidazol-5-ylcarboxylic acid-N-(2-pyridyl)-N-(2-ethoxycarbonylethyl)amides]
Systemic thromboembolic events, number ([1]; 50 mg b.i.d. group): 2 | Major bleeding events ([1]; 300 mg b.i.d. plus ASA groups): 6% | Major bleeding events, number ([1]; 300 mg b.i.d. plus ASA groups): Four | Minor bleeding ([1]; 50, 150 and 300 mg b.i.d.): dose related | Elevated transaminases >3×upper limit of normal (ULN) ([1]; dabigatran etexilate-treated patients, all doses): 0.9% | Elevated transaminases >3×upper limit of normal (ULN), number of patients ([1]; of 432 dabigatran etexilate-treated patients): 4 | Hygroscopicity [2]: hygroscopic | Solubility in water [2]: sparingly soluble in water | Adverse Events leading to premature discontinuation (rate) ([3]; 50 mg b.i.d.): 21.3 per 100 patient years | Other MACE (rate) ([3]; 50 mg b.i.d.): 8.5 per 100 patient years | Stroke and Systemic Thromboembolism (rate) ([3]; 50 mg b.i.d.): 12.8 per 100 patient years | Stroke and Systemic Thromboembolism (rate) ([3]; 50 mg b.i.d., listed as dabigatran etexilate): more than 12 per 100 patient years | ALT or AST >2xULN (rate) ([3]; 150 mg b.i.d.): 3.1 per 100 patient years | ALT or AST >3xULN (rate) ([3]; 150 mg b.i.d.): 1.9 per 100 patient years | ALT or AST >3xULN and Bili >2xULN within 30 days (rate) ([3]; 150 mg b.i.d.): 0.4 per 100 patient years | ALT or AST >5xULN (rate) ([3]; 150 mg b.i.d.): 1.0 per 100 patient years | Adverse Events leading to premature discontinuation (rate) ([3]; 150 mg b.i.d.): 9.8 per 100 patient years | Fatal major bleeds, number ([3]; 150 mg b.i.d.): 4 | MI (rate) ([3]; 150 mg b.i.d.): 0.9 per 100 patient years | Major Bleeds (rate) ([3]; 150 mg b.i.d.): 4.2 per 100 patient years | Major Bleeds, of these with aspirin (rate) ([3]; 150 mg b.i.d.): 8.7 per 100 patient years | Major Bleeds, of these without aspirin (rate) ([3]; 150 mg b.i.d.): 3.2 per 100 patient years | Major bleeding events ([3]; 150 mg b.i.d.): 4.2 % per year | Other MACE (rate) ([3]; 150 mg b.i.d.): 1.0 per 100 patient years | Stroke and Systemic Thromboembolism (rate) ([3]; 150 mg b.i.d.): 1.0 per 100 patient years | TIA (rate) ([3]; 150 mg b.i.d.): 0.1 per 100 patient years | Thromboembolic events and stroke rate ([3]; 150 mg b.i.d.): 1 % per year | ALT or AST >2xULN (rate) ([3]; 150 mg q.d.): 3.4 per 100 patient years | Adverse Events leading to premature discontinuation (rate) ([3]; 150 mg q.d.): 13.7 per 100 patient years | Major Bleeds (rate) ([3]; 150 mg q.d.): 5.1 per 100 patient years | Major Bleeds, of these without aspirin (rate) ([3]; 150 mg q.d.): 6.5 per 100 patient years | Stroke and Systemic Thromboembolism (rate) ([3]; 150 mg q.d.): 5.1 per 100 patient years | Stroke and Systemic Thromboembolism (rate) ([3]; 150 mg q.d., listed as dabigatran etexilate): about 5 per 100 patient years | ALT or AST >2xULN (rate) ([3]; 300 mg b.i.d.): 4.9 per 100 patient years | ALT or AST >3xULN (rate) ([3]; 300 mg b.i.d.): 2.4 per 100 patient years | ALT or AST >5xULN (rate) ([3]; 300 mg b.i.d.): 1.2 per 100 patient years | Adverse Events leading to premature discontinuation (rate) ([3]; 300 mg b.i.d.): 25.6 per 100 patient years | Major Bleeds (rate) ([3]; 300 mg b.i.d.): 12.2 per 100 patient years | Major Bleeds, of these with aspirin (rate) ([3]; 300 mg b.i.d.): 32.7 per 100 patient years | Major Bleeds, of these without aspirin (rate) ([3]; 300 mg b.i.d.): 6.3 per 100 patient years | Major bleeding events ([3]; 300 mg b.i.d.): 12.2 % per year | Other MACE (rate) ([3]; 300 mg b.i.d.): 1.2 per 100 patient years | Stroke and Systemic Thromboembolism (rate) ([3]; 300 mg b.i.d.): 1.2 per 100 patient years | Thromboembolic events and stroke rate ([3]; 300 mg b.i.d.): 1.2 % per year | Major Bleeds (rate) [3, 6]: more than 12 per 100 patient years | Stroke and Systemic Thromboembolism (rate) [3, 6]: about 1 per 100 patient years | ALT or AST >2xULN (rate) ([3]; 300 mg q.d.): 1.5 per 100 patient years | ALT or AST >3xULN (rate) ([3]; 300 mg q.d.): 1.5 per 100 patient years | ALT or AST >3xULN and Bili >2xULN within 30 days (rate) ([3]; 300 mg q.d.): 0.5 per 100 patient years | ALT or AST >5xULN (rate) ([3]; 300 mg q.d.): 1.5 per 100 patient years | Adverse Events leading to premature discontinuation (rate) ([3]; 300 mg q.d.): 9.6 per 100 patient years | Fatal major bleeds, number ([3]; 300 mg q.d.): 1 | MI (rate) ([3]; 300 mg q.d.): 0.5 per 100 patient years | Major Bleeds (rate) ([3]; 300 mg q.d.): 2.5 per 100 patient years | Major Bleeds, of these with aspirin (rate) ([3]; 300 mg q.d.): 3.6 per 100 patient years | Major Bleeds, of these without aspirin (rate) ([3]; 300 mg q.d.): 2.1 per 100 patient years | Major bleeding events ([3]; 300 mg q.d.): 2.5 % per year | Other MACE (rate) ([3]; 300 mg q.d.): 0.5 per 100 patient years | Stroke and Systemic Thromboembolism (rate) ([3]; 300 mg q.d.): 2.5 per 100 patient years | Stroke and Systemic Thromboembolism (rate) ([3]; 300 mg q.d., listed as dabigatran etexilate): more than 2 per 100 patient years | Tolerability ([3]; 300 mg twice daily): not tolerable | Serious adverse events: cardiac disorders ([3]; PETRO-Ex): 22% | Serious adverse events: cardiac disorders, pts ([3]; PETRO-Ex): 80 | Serious adverse events: gastrointestinal disorders ([3]; PETRO-Ex): 7.8% | Serious adverse events: gastrointestinal disorders, pts ([3]; PETRO-Ex): 28 | Serious adverse events: infections ([3]; PETRO-Ex): 9.4% | Serious adverse events: infections, pts ([3]; PETRO-Ex): 34 | Serious adverse events: nervous system disorders ([3]; PETRO-Ex): 9.1% | Serious adverse events: nervous system disorders, pts ([3]; PETRO-Ex): 33 | Stroke and systemic embolism (per 100 patient years) ([3]; PETRO-Ex, Dabigatran etexilate 150 mg b.i.d.): 1.0% | Major bleeding events (per 100 patient years) ([3]; PETRO-Ex, Dabigatran etexilate 150 mg b.i.d., without concomitant aspirin): 3.2%* | LFT abnormalities >3 xULN (per 100 patient years) [3, 7]: 1.7% | Myocardial Infarction [3, 7]: 0.7% | Serious adverse events [3, 8]: 51% | Serious adverse events, patients [3, 8]: 184 | ALT or AST >2xULN (rate) ([3]; Total): 2.9 per 100 patient years | ALT or AST >3xULN (rate) ([3]; Total): 1.7 per 100 patient years | ALT or AST >3xULN and Bili >2xULN within 30 days (rate) ([3]; Total): 0.4 per 100 patient years | ALT or AST >5xULN (rate) ([3]; Total): 1.1 per 100 patient years | Adverse Events leading to premature discontinuation (rate) ([3]; Total): 11.5 per 100 patient years | MI (rate) ([3]; Total): 0.7 per 100 patient years | Major Bleeds (rate) ([3]; Total): 4.2 per 100 patient years | Major Bleeds, of these with aspirin (rate) ([3]; Total): 8.5 per 100 patient years | Major Bleeds, of these without aspirin (rate) ([3]; Total): 3.2 per 100 patient years | Other MACE (rate) ([3]; Total): 1.1 per 100 patient years | Stroke and Systemic Thromboembolism (rate) ([3]; Total): 1.9 per 100 patient years | TIA (rate) ([3]; Total): 0.1 per 100 patient years | Concomitant bilirubin elevation >2×ULN within 30 days of transaminase elevations >3×ULN ([3]; all doses): 0.4 % per year | Elevated liver transaminases, AST or ALT >3×ULN ([3]; all doses): 1.7 % per year | Fatal intracranial bleeds, number ([3]; all doses): Three | Fatal major bleeds, number ([3]; all doses): Five | Transaminases (AST or ALT) >5×ULN ([3]; all doses): 1.1 % per year | Major bleed rate ([3]; doses ≦150 mg/day (150 mg q.d. combined with 50 mg b.i.d.)): 3.7 % per year | Bleeding event rate ([3]; on concomitant aspirin): 8.5 % per year | Stroke or systemic thromboembolic event rates ([3]; the two highest doses): approximately 1 % per year | Bleeding event rate ([3]; without concomitant aspirin): 3.2 % per year | Annualized thromboembolic event rate ([3]; ≦150 mg/day): over 5.0 per 100 patient years | Food interactions [4]: no food interactions | Metabolism by, induction or inhibition of cytochrome P-450 [5]: not metabolized by and does not induce or inhibit cytochrome P-450 drug metabolizing enzymes
